This note sets out measurements from patent US10669310B2, “Peptide for cancer treatment and pharmaceutical composition containing same” (TOKUSHIMA UNIVERSITY, priority 2016, dated 2020).

Where two headings read alike, the source gives them in different places. *1 amine or outer side, *2 acyl side, *3 side chain or, on linkers, in order; H or OH if unused. Where a SMILES comes first, the peptide text is derived from it. Bridges are numbered along the chain shown (N, C = ends). [ ]: non-standard residue; d: D form. NH(CH2)4NH = C(CCN[*:2])CN[*:1]

In data set [1] the test system is MCF-7 cells. It is filed as cell-based, human. The settings on record: for duration of significant cell growth inhibitory effects: 1 μM, E2-dependent growth of MCF-7. How it is done: (§1) Human breast cancer cell line MCF-7 and mammary epithelial cell line MCF-10A were purchased from American Type Culture Collection (ATCC, Manassas, Va., USA). Breast cancer cell line KPL-3C (J. Kurebayashi, et al., Br. J. Cancer 74, 200-207 (1996)) was kindly provided by Dr. Junichi Kurebayashi (Kawasaki Medical School). All cell lines were monolayer cultured in an appropriate medium supplemented with 10% FBS. The cells were maintained at 37° C. under humidified atmosphere containing 5% CO2.
(§2) In each experiment, the respective cells were seeded in a 48-well plate (2×10^4 cells/mL), a 6-well plate (3×10^5 cells/mL), or a 10-cm dish (2×10^6 cells/10 mL). MCF-7 cells were seeded in MEM (Thermo Fisher Scientific) supplemented with 10% FBS (Nichirei Biosciences Inc., Tokyo, Japan), 1% Antibiotic/Antimycotic solution (Thermo Fisher Scientific, Waltham, Mass., USA), 0.1 mM NEAA (Thermo Fisher Scientific), 1 mM sodium pyruvate (Thermo Fisher Scientific), and 10 μg/mL insulin (Sigma, St. Louis, Mo., USA). KPL-3C cells were seeded in RPMI (Thermo Fisher Scientific) supplemented with 10% FBS and 1% Antibiotic/Antimycotic solution. MCF-10A cells were seeded in MEBM (Lonza) supplemented with a Single Quots kit (BPE, hydrocortisone, hEGF, insulin, gentamycin/amphoterin-B) (Lonza, Walkersville, Md., USA) and 100 ng/mL cholera toxin. For 17β-estradiol (E2) (Sigma) stimulation, the media for MCF-7 and KPL-3C were changed to phenol red-free DMEM/F12 (Thermo Fisher Scientific) supplemented with 10% FBS, 1% Antibiotic/Antimycotic solution, 0.1 mM NEAA, 1 mM sodium pyruvate, and 10 μg/mL insulin on the day after seeding. Twenty-four hours later, the cells were treated with 10 nM E2 and a peptide (for example, 11R-ERAP or a stapled ERAP), or with 10 nM E2 alone.
When carrying out treatment with tamoxifen (Sigma) or fulvestrant (LKT laboratories, St. Paul, Minn., USA), cells were treated with 10 nM tamoxifen or 2 μM fulvestrant simultaneously with the above-mentioned treatment with E2 and a peptide or with E2 alone.
Cell growth assays on MCF-7, KPL-3C, and MCF-10A were carried out as described previously using a Cell Counting Kit-8 (CCK-8) (Dojindo, Kumamoto, Japan) (T. Yoshimaru, et al., Nat. Commun. 4, 2443 (2013)). The data are shown by mean±SE of three independent experiments.

The target of data set [2] is T1, BIG3-PHB2 interaction (Homo sapiens, UniProt Q99623).
T1 construct: complex formation between the endogenous BIG3 and PHB2 in ERα-positive breast cancer cell line MCF-7; endogenous in cells; host or cells: MCF-7
T1 sequence (Q99623 2-299 limits assumed): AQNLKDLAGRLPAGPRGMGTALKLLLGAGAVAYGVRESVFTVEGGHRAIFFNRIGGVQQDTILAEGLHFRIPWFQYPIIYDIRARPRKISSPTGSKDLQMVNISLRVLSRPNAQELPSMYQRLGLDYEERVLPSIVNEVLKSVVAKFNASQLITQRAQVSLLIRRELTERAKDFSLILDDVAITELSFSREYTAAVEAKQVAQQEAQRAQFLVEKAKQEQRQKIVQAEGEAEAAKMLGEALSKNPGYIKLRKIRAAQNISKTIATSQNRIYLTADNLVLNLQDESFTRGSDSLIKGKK
The data set can be described thus: Co-immunoprecipitation with anti-BIG3 antibody in MCF-7 cells. It is filed as cell-based. The settings on record: MCF-7, 1 μM, 24 hours after treatment. How it is done: Immunoblot analyses were performed as described previously (T. Yoshimaru, et al., Nat. Commun. 4, 2443 (2013)). After performing SDS-PAGE, the membranes blotted with proteins were blocked with 4% BlockAce solution (Dainippon Pharmaceutical, Osaka, Japan) for three hours and then incubated with antibodies against the following proteins: BIG3 (1:1,000) (T. Yoshimaru, et al., Nat. Commun. 4, 2443 (2013)); PHB2 (1:1,000) (Abeam, Cambridge, UK); Akt, phosphorylated Akt (S473) (587F11, 1:1,000); p44/42 MAPK, phosphorylated p44/42 MAPK (T202/Y204) (1:1,000); α/β-tubulin (1:1,000) (Cell Signaling Technology, Danvers, Mass., USA); and LMNB1 (1:100) (Sigma). After incubation with an HRP-labeled secondary antibody (anti-mouse IgG-HRP, 1:5,000; anti-rat IgG-HRP; 1:5,000; or anti-rabbit IgG-HRP, 1:1,000) (Santa Cruz Biotechnology, Dallas, Tex., USA) for one hour, the blots were developed with an Enhanced Chemiluminescence (ECL) system (GE Healthcare, Buckinghamshire, UK) and scanned using an Image Reader LAS-3000 mini (Fujifilm, Tokyo, Japan). All the experiments were performed at least in triplicate.
Immunoprecipitation analysis was performed as described previously (T. Yoshimaru, et al., Nat. Commun. 4, 2443 (2013)). Cell lysates were pre-cleared with normal IgG and rec-Protein G Sepharose 4B (Thermo Fisher Scientific) at 4° C. for three hours. Then, the supernatants were incubated with 5 μg of an antibody against BIG3 or an antibody against PHB2 at 4° C. for twelve hours. Next, the antigen-antibody complexes were precipitated using rec-Protein G Sepharose 4B at 4° C. for one hour. The immunoprecipitated protein complexes were washed several times with a lysis buffer. Then, SDS-PAGE and immunoblot analyses were carried out as described above.

The subject of data set [3] is MCF-10A cells. The data set can be described thus: Cell growth (MTT) assay, MCF-10A cells. Format: cell-based, human. The following applies: normal mammary epithelial cells, ERα-negative and BIG3-negative. Here is the method: as §1
as §2, with “For 17β-estradiol (E2) (Sigma) stimulation, the media for MCF-7 and KPL-3C were changed to phenol red-free DMEM/F12 (Thermo Fisher Scientific) supplemented with 10% FBS, 1% Antibiotic/Antimycotic solution, 0.1 mM NEAA, 1 mM sodium pyruvate, and 10 μg/mL insulin on the day after seeding. Twenty-four hours later, the cells were treated with 10 nM E2 and a peptide (for example, 11R-ERAP or a stapled ERAP), or with 10 nM E2 alone.” left out

The format of data set [4] is in vivo. The settings on record: i.p. every day or every four days, 28 days. Here is the method:
KPL-3C cell suspensions (1×10^7 cells/mouse) were mixed with an equal volume of Matrigel (BD) and injected (200 μL in total) into the mammary fat pads of 6-week-old female BALB/c nude mice (Charles River Laboratories, Tokyo, Japan). The mice were housed in a pathogen-free isolation facility with a twelve-hour light/dark cycle and were fed solid rodent chow and water ad libitum. The tumors developed over several days and reached sizes of approximately 100 mm^3 [calculated as ½×(width×length^2)]. The mice were randomized into the following eleven treatment groups (five heads per group):
E2 was administered via application of a solution to the neck skin, and regarding the other treatments, administration was performed via intraperitoneal injection unless other administration methods are stated. The tumor volume was measured with calipers for 28 days, and then the mice were subjected to scheduled sacrifice to remove tumors. All the experiments were performed in accordance with the guidelines of the animal facility at Tokushima University.

Data set [5] in a line: In vitro blood-brain barrier permeability test. It is filed as in vitro ADME. How it is done:
BIG3 is expressed in the brain though expression is weak (Kim, J. W. et al., Cancer Sci. 100, 1468-1478 (2009)). Then, since there were concerns of side effects due to the transfer of stapled ERAP to the brain, blood-brain-barrier permeability test was carried out on stapled ERAP. Blood-brain-barrier permeability of stapled ERAP (No. 12) was examined by placing stapled ERAP (No. 12) to the inner side (vascular cavity side) of the insert of a blood-brain barrier permeability kit, and measuring the concentration of stapled ERAP (No. 12) that passed through a filter specialized for intracerebral transferability assay and leaked into the well (cerebral parenchyma side) of the plate in 30 minutes. The permeability coefficient (Papp) at this time was calculated (2 or less: very low permeability; 2 to 10: low permeability; 10 to 20: high permeability; and 20 or higher: very high permeability).

As to `CSCC[C@H](NC(=O)[C@@H](N)CCC(N)=O)C(=O)N[C@@H](CC(C)C)C(=O)N[C@@H](CO)C(=O)N[C@@H](CC(=O)O)C(=O)N[C@@H](CC(C)C)C(=O)N[C@H](C(=O)N[C@@H](CC(C)C)C(=O)N[C@@H](CCC(N)=O)C(=O)N[C@@H](CC(C)C)C(=O)N[C@@H](CCCNC(=N)N)C(=O)N[C@@H](CCC(N)=O)C(=O)N[C@@H](CCCNC(=N)N)C(=O)N[C@@H](CCCNC(=N)N)C(=O)N[C@@H](CCCNC(=N)N)C(=O)N[C@@H](CCCNC(=N)N)C(=O)N[C@@H](CCCNC(=N)N)C(=O)N[C@@H](CCCNC(=N)N)C(=O)N[C@@H](CCCNC(=N)N)C(=O)N[C@@H](CCCNC(=N)N)C(=O)N[C@@H](CCCNC(=N)N)C(=O)O)[C@@H](C)O` [QMLSDLTLQLRQR-8R] (H-QMLSDLTLQLRQRRRRRRRRR-OH; N-terminus and C-terminus assumed), in data set [1], 7.78 µM corresponded to half-maximal inhibition (IC50).
On to `CSCC[C@@H](NC(=O)[C@@H](CCC(N)=O)NC(C)=O)C(=O)N[C@@H]1CCC(=O)NCCCCNC(=O)CC[C@H](C(=O)N[C@H](CC(C)C)C(=O)N[C@H](CCC(N)=O)C(=O)N[C@H](CC(C)C)C(=O)N[C@H](CCCNC(=N)N)C(=O)N[C@H](CCC(N)=O)C(=O)N[C@H](CCCNC(=N)N)C(N)=O)NC(=O)[C@@H](CC(C)C)NC(=O)[C@@H](CC(=O)O)NC(=O)[C@@H](CO)NC1=O` [stapled-D-ERAP No. 12], for which, in data set [2], the “inhibition of endogenous BIG3-PHB2 complex formation” value is “inhibited endogenous BIG3-PHB2 complex formation”. Further, the “effect on MCF-10A cell growth” value in data set [3] was “not inhibited”. For the same compound, in data set [1], the “duration of significant cell growth inhibitory effects” value was “seven”. In data set [1] (96 h), half-maximal inhibition (IC50) required 0.44 µM.
For the compound “QMLSDLTLQLRQR (PHB2-binding peptide derived from BIG3) [ERAP, reference compound]”, in data set [1], the “effect on E2-dependent MCF-7 cell growth” value is given as “did not show effects”.
Consider `CSCC[C@@H](NC(=O)[C@H]1CCC(=O)NCCCCNC(=O)CC[C@@H](NC(C)=O)C(=O)N[C@H](CC(C)C)C(=O)N[C@H](CC(=O)O)C(=O)N[C@H](CO)C(=O)N1)C(=O)N[C@H](CCC(N)=O)C(N)=O` [shRI stapled ERAP No. 12] (Ac-[dE][dL][dD][dS][dE][dM][dQ]-NH2; linker 1-5 via NH(CH2)4NH; N-terminus and C-terminus assumed), for which, in data set [2], the “inhibition of endogenous BIG3-PHB2 complex formation” value is on record as “inhibited endogenous BIG3-PHB2 complex formation”. Further, the “duration of significant cell growth inhibitory effects” value in data set [1] was “seven”. In addition, in data set [1] (96 h), the IC50 (commonly the point on the concentration scale where inhibition reaches its midpoint) was determined as 0.53 µM.
Regarding `CSCC[C@H](NC(=O)[C@H](CCC(N)=O)NC(=O)CNC(=O)CNC(=O)CNC(=O)[C@H](CCCNC(=N)N)NC(=O)[C@H](CCCNC(=N)N)NC(=O)[C@H](CCCNC(=N)N)NC(=O)[C@H](CCCNC(=N)N)NC(=O)[C@H](CCCNC(=N)N)NC(=O)[C@H](CCCNC(=N)N)NC(=O)[C@H](CCCNC(=N)N)NC(=O)[C@H](CCCNC(=N)N)NC(=O)[C@H](CCCNC(=N)N)NC(=O)[C@H](CCCNC(=N)N)NC(=O)[C@@H](N)CCCNC(=N)N)C(=O)N[C@@H](CC(C)C)C(=O)N[C@@H](CO)C(=O)N[C@@H](CC(=O)O)C(=O)N[C@@H](CC(C)C)C(=O)N[C@H](C(=O)N[C@@H](CC(C)C)C(=O)N[C@@H](CCC(N)=O)C(=O)N[C@@H](CC(C)C)C(=O)N[C@@H](CCCNC(=N)N)C(=O)N[C@@H](CCC(N)=O)C(=O)N[C@@H](CCCNC(=N)N)C(=O)O)[C@@H](C)O` [11R-ERAP, 11R-GGG-QMLSDLTLQLRQR, reference compound] (H-RRRRRRRRRRRGGGQMLSDLTLQLRQR-OH; N-terminus and C-terminus assumed), the “toxicity, body weight” value in data set [4] is listed as “No toxicity or significant body weight decrease”. The “inhibition rate of E2-dependent growth” value in data set [1] was 45%. For the same compound, the IC50 in data set [1] (96 h) came to 7.97 µM.
As for `CSCC[C@H](NC(=O)[C@H](CCC(N)=O)NC(C)=O)C(=O)N[C@H]1CCC(=O)NCCCCNC(=O)CC[C@@H](C(=O)N[C@@H](CC(C)C)C(=O)N[C@@H](CCC(N)=O)C(=O)N[C@@H](CC(C)C)C(=O)N[C@@H](CCCNC(=N)N)C(=O)N[C@@H](CCC(N)=O)C(=O)N[C@@H](CCCNC(=N)N)C(N)=O)NC(=O)[C@H](CC(C)C)NC(=O)[C@H](CC(=O)O)NC(=O)[C@H](CO)NC1=O` [stapled ERAP No. 12], the Papp (as a rule, the rate of passage across a membrane or cell layer, normalised by area and donor concentration) at 30 min, 30 μM in data set [5] (30 μM) worked out at 0.177 ×10⁻⁶ cm/s. Besides, in data set [5] (30 minutes, 2 or less: very low permeability, read-out: blood-brain barrier permeability coefficient (Papp)), the Papp at 30 min is at most 2 ×10⁻⁶ cm/s. In addition, the recovery at 30 minutes, 10 μM in data set [5] (not told, 10 μM, read-out: Recovery Rate) amounted to 0%. In data set [5] (not told, 30 μM, read-out: Recovery Rate), the recovery at 30 minutes, 30 μM was 0.01%. The “toxicity, body weight” value in data set [4] is listed as “No toxicity or significant body weight decrease”. In data set [1] (96 h), this compound showed an IC50 of 0.59 µM.
For the compound `CSCC[C@H](NC(=O)[C@@H](N)CCC(N)=O)C(=O)N[C@@H](CC(C)C)C(=O)N[C@@H](CO)C(=O)N[C@@H](CC(=O)O)C(=O)N[C@@H](CC(C)C)C(=O)N[C@H](C(=O)N[C@@H](CC(C)C)C(=O)N[C@@H](CCC(N)=O)C(=O)N[C@@H](CC(C)C)C(=O)N[C@@H](CCCNC(=N)N)C(=O)N[C@@H](CCCNC(=N)N)C(=O)N[C@@H](CCCNC(=N)N)C(=O)N[C@@H](CCCNC(=N)N)C(=O)N[C@@H](CCCNC(=N)N)C(=O)N[C@@H](CCCNC(=N)N)C(=O)N[C@@H](CCCNC(=N)N)C(=O)N[C@@H](CCCNC(=N)N)C(=O)O)[C@@H](C)O` [QMLSDLTLQL-8R] (H-QMLSDLTLQLRRRRRRRR-OH; N-terminus and C-terminus assumed), half-maximal inhibition in data set [1] (IC50) required 7.98 µM.
